The record followed here is US20250171463A1 (BIOGEN MA INC., priority 2022, published 2025).

In this experiment the target is T1, EBP (Homo sapiens, UniProt Q15125).
T1 construct: HEK293T cells were utilized as the source of EBP enzyme; endogenous in cells; host or cells: HEK293T
The experiment in a line: EBP Functional Assay (EBP immunoaffinity LC-MS assay). It is filed as biochemical. Conditions: EBP enzyme from HEK293T cells; 30 min with inhibitor, then zymosterol-d5, 37° C., 4 h; percent conversion to dehydrolathosterol-d5 by LC-APCI MRM MS. Summed up:
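IC50 comes from a 4-parameter logistic fit of zymosterol-d5-to-product percent conversion, measured by LC-APCI MRM MS after sterol extraction. Compounds were preincubated 30 min with EBP from HEK293T cells before deuterated substrate was added for 4 h at 37° C; Tasin-1 served as reference.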

T1 sequence (Q15125 whole entry): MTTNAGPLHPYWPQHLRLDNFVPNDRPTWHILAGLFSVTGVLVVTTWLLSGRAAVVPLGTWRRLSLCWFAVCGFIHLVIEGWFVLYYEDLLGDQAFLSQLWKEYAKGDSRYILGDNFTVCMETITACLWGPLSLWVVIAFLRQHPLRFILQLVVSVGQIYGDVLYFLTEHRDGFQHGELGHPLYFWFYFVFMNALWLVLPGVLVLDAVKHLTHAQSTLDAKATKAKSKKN

In the case of `O=S(=O)(c1ccc(C(F)(F)F)nc1)N1CC2(CN(CC3CCOCC3)C2)C1` [Example 229, 2-((tetrahydro-2H-pyran-4-yl)methyl)-6-((6-(trifluoromethyl)pyridin-3-yl)sulfonyl)-2,6-diazaspiro[3.3]heptane], the IC50 was in the range of 250 to 4000 nM.

As a reminder, the IC50 is the concentration at which inhibition is half-maximal. The low end stands for greater potency, the high end for weaker potency.
